Test results from patent US5356926A, “3-alkyloxy-, aryloxy-, or arylalkyloxy-benzo [β]thiophene-2-carboxamides as inhibitors of cell adhesion” (Warner-Lambert Company, priority 1993, dated 1994).

What was measured:
[1] = system: human neutrophil adhesion to TNFα, IL-1α, and LPS stimulated human umbilical vein endothelial cells; assay: Modified method: inhibition of human neutrophil adhesion to TNF-stimulated HUVEC (calcein fluorescence); assay type: cell-based; parameters: inhibition: dose or concentration left out as unconfirmed; conditions: for inhibition: Table 3; for inhibition at 33.3 µM: Table 2, tested at a concentration of 33.3 μM (footnote a)
Excerpt: MODIFIED METHOD FOR DETERMINING THE INHIBITION OF HUMAN NEUTROPHIL ADHESION TO TNFα, IL-1α, AND LPS STIMULATED HUMAN UMBILICAL VEIN ENDOTHELIAL CELLS BY 3-ALKOXY-BENZO[b]THIOPHENE-2-CARBOXAMIDES
The previous assay using ^51 Cr labeled human neutrophils has been modified. The neutrophils are now labeled with the fluorescent dye calcein. The current method allows for quantification of neutrophil adherence by fluorescence spectroscopy.
Second passage HUVEC (Clonetics Corporation, San Diego, Calif., CC-2617) were seeded into Corning (Corning glass works, Corning, N.Y.) 96-well cell culture plates at approximately 5×10^3 cells/well and grown to confluency in supplemented endothelial basal medium (EBM, MCDB-131, Clonetics, 10 ng/mL EGF, 1 μg/mL hydrocortisone, 0.4% bovine brain extract, 5% Fetal Bovine Serum). One day prior to running the assay, typically 3 days postseeding, the cultures were refed with 0.2 mL/well supplemented EBM (S-EBM).
Preparation of Test Compounds
Test compounds were prepared as 10 mL stock solutions at a concentration of 1.0 mM. The compounds were initially solubilized in 0.1 mL DMSO followed by the addition of 9.9 mL S-EBM. The drug preparations were then diluted in one step to a concentration of 66.6 μM. Solubilizations and dilutions were performed in polystyrene containers.
Isolation of Human Neutrophils
Human neutrophils were isolated from anticoagulant-treated venous blood obtained from healthy volunteers according to the method of Ferrante and Thong. The cell preparations consisted of greater than 98% neutrophils.
Recombinant human tumor necrosis factor-α (TNF, Genzyme, Boston, Mass., code TNF-H) was prepared at 400 U/mL in S-EBM. Stock TNF was prepared to 20,000 U/mL in Delbecco's phosphate-buffered saline (PBS, Gibco, Grand Island N.Y.) plus 0.1% BSA and stored at -70° C. […] This was accomplished by adding 0.1 mL of 400 U/mL TNF and 0.1 mL 66.6 μM test compound. These additions were done slowly as to not disrupt the HUVEC monolayer. Each compound was tested in six wells. Unstimulated (vehicle control) and TNF-stimulated without test compound treatments were also run in each plate.
One hour prior to adding the neutrophils to the HI/VEC, neutrophils (5×10^6 /mL) were labeled for 30 minutes at 37° C. with 5 μM calcine-AM (Molecular Probes, Eugene, OR) in Hanks' balanced salt solution plus 0.45% BSA. Stock calcein was prepared to 5 mM in anhydrous DMSO and stored desiccated at -20° C. At the end of the incubation the cells were washed two times in cold HBSS and resuspended to a final concentration of 1×10^6 cells/mL in unsupplemented EBM.
Addition of Neutrophils to HUVEC
At the end of the 4-hour stimulation and immediately prior to the addition of the neutrophils to the HUVEC monolayer, the plates were washed with 0.2 mL warm unsupplemented EBM to remove TNF and drug. Neutrophils (1×10^5 cells) were slowly added to each of the treated wells and incubated for 30 minutes at 37° C. At the end of the incubation the plates were washed two times with 0.2 mL warm unsupplemented EBM followed by a final addition of 0.1 mL for plate scanning.
Determination of Relative Fluorescence
The relative fluorescence was determined using a Millipore Cytofluor 2300 system (excitation=480, emission=530, sensitivity=4).
Results were expressed as means of percent inhibition of TNF-stimulated adherence, using the following equation. [formula] […] Linear regression analysis of the means of the inhibition values were used to determine the IC50.
The compounds of Examples 36-44 in Table 2 and 45-53 in Table 3 were tested according to the modified method.

5-Lipoxygenase [2] = target: T1, 5-Lipoxygenase (Rattus norvegicus, UniProt P12527); assay: ARBL: 5-lipoxygenase (LTB4) in RBL-1 cells; assay type: cell-based; parameters: endogenous in cells; host or cells: RBL-1 (rat basophilic leukemia); conditions: Table 4; ARBL/ARBC IC50 (μM) or % inhibition at 10 μM; RBL-1 cells, A23187
T1 sequence (P12527 1-673): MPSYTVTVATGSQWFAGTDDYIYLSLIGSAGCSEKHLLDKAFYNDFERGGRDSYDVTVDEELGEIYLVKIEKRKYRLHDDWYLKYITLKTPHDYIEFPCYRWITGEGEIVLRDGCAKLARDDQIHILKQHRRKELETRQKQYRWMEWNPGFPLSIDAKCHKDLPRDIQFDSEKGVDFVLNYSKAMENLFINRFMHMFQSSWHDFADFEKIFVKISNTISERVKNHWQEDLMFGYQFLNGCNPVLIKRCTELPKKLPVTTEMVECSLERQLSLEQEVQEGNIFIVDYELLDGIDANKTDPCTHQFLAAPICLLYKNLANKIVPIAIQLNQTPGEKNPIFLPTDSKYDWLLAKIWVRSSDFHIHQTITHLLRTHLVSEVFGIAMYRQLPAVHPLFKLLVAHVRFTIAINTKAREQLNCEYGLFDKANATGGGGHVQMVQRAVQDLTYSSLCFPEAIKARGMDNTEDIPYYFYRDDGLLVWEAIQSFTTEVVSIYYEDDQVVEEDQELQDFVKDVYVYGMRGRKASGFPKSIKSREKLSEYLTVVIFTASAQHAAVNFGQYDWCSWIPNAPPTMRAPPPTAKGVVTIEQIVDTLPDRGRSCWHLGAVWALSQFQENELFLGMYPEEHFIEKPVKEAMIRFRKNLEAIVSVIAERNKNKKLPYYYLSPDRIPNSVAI
Experimental: The testing methods used are described as follows:
The rat basophilic leukemia cell line (RBL-1) was obtained from the American Type Culture Collection (Rockville, Md.).
Radioimmunoassay (RIA) kits of LTB4 and PGF2α were obtained from Arnersham (Arlington Heights, IL) and Seragen (Boston, Mass.), respectively.
All tissue culture media were obtained from GIBCO (Grand Island, N.Y.).
RBL-1 cells are grown in suspension culture in Eagle's minimum essential medium supplemented with 12% fetal bovine serum at 37° C. in an incubator supplied with air-5% carbon dioxide. Cells are harvested by centrifugation. They are washed with cold phosphate-buffered saline, pH 7.4 (PBS; NaCl, 7.1 g; Na2 HPO4, 1.15 g; KH2 PO4, 0.2 g; and KCl, 0.2 g/L). Cells are finally suspended in PBS containing 1.0 mM calcium at a density of 2×10^6 cells/mL. Cells are incubated with and without test agent (in DMSO) (1% DMSO is without effect on arachidonic acid metabolism) for 10 minutes at room temperature. Calcium ionophore A23187 (5 μM) is added and cells are incubated for 7 minutes at 37° C. The reaction is stopped by chilling the tubes on ice for 10 minutes. Cells are separated by centrifugation and the supernatant is stored at -20° C. Aliquots (100 μL) are analyzed for LTB4 and PGF2α using radioimmunoassay kits as provided by the supplier.

5-Lipoxygenase [3] = target: T1, 5-Lipoxygenase; assay: 5-lipoxygenase inhibition assay (20,000 xg supernatant of RBL cells); assay type: biochemical; parameters: activity contained in the 20,000 xg supernatant from cultured rat basophilic leukemia (RBL) cells; endogenous in cells; host or cells: RBL (rat basophilic leukemia) cells, 20,000 xg supernatant; conditions: Table 4, read-out: 5-LO % Inhibition at 30 μM
Experimental: PROTOCOL FOR 5-LIPOXYGENASE INHIBITION ASSAY
Incubations contained 5% (v/v) RBL 20,000 xg supernatant in assay buffer (10 mM BES, 10 mM PIPES, 1 mM EDTA, 0.75 mM CaC12, 1 mMATP, 100 mMNaCl, pH 6.8). DMSO vehicle (2% v/v) with and without inhibitors is preincubated with the enzyme for 20 minutes at 37° C. before initiating the 5-lipoxygenase catalyzed reaction by adding […] [^14 C]arachidonic acid (55.8 mCi/mmol, New England Nuclear, Boston, Mass.) dissolved in 5 μL 0,028% (v/v) aqueous NH4 OH. After 20 minutes of additional incubation at 37° C., reactions are terminated by the addition of three volumes of methanol containing 100 μg triphenylphosphine. Samples are then analyzed by HPLC with radiometric detection for 5-1ipoxygenase reaction products.
All treatments are evaluated in duplicate and percent inhibition is computed by comparing the products formed in treatment incubations to the mean product formation in the vehicle control group.

| Compound | inhibition [1] [%] | inhibition at 33.3 µM [1] [%] | further results |
| --- | --- | --- | --- |
| Cc1ccc2c(c1)c(OC(C)C)c(C(N)=O)[s+]2[O-] (centres unmarked) [Example 50, 5-Methyl-3-(1-methylethoxy)benzo[b]thiophene-2-carboxaraide-1-oxide] | 69 |  |  |
| COc1ccc2c(c1)c(Oc1ccccc1)c(C(N)=O)[s+]2[O-] (centres unmarked) [Example 51, 5-Methoxy-3-phenoxybenzo[b]thiophene-2-carboxamide-1-oxide] | 15 |  |  |
| CC(C)Oc1c(C(N)=O)[s+]([O-])c2ccc(O)cc12 (centres unmarked) [Example 49, 5-Hydroxy-3-(1-methylethoxy)benzo[b]thiophene-2-carboxaraide-1-oxide] | 79 |  |  |
| CNC(=O)c1c(OC(C)C)c2cc(OC)ccc2[s+]1[O-] (centres unmarked) [Example 46, 5-Methoxy-N-methyl-3-(1-methylethoxy)benzo[b]thiophene-2-carboxamide-1-oxide] | 43 |  |  |
| COc1ccc2sc(C(=O)Nc3ccc(C(=O)O)c(O)c3)c(OC(C)C)c2c1 [Example 42, 2-Hydroxy-4-[[[5-methoxy-3-(1-methylethoxy)benzo[b]thien-2-yl]carbonyl]arnino]benzoic acid] |  |  | IC50 ([1]; Table 2, footnote c not defined): 34 µM |
| COc1ccc2c(c1)c(OC(C)C)c(C(=O)NCc1ccccc1)[s+]2[O-] (centres unmarked) [Example 47, 5-Methoxy-3-(1-methylethoxy)-N-(phenylmethyl)benzo[b]thiophene-2-carboxamide-1-oxide] | 15 |  |  |
| COc1ccc2sc(C(=O)Nc3ccc(C(=O)O)cc3OC)c(OC(C)C)c2c1 [Example 40, 3-Methoxy-4-[[[5-methoxy-3-(1-methylethoxy)benzo [b]thien-2-yl]carbonyl]amino]benzoic acid] |  | 34 |  |
| COc1ccc2c(c1)c(OC)c(C(N)=O)[s+]2[O-] (centres unmarked) [Example 53, 3,5-Dimethoxybenzo[b]thiophene-2-carboxamide-1-oxide] | 40 |  |  |
| CCOC(=O)c1ccc(NC(=O)c2sc3ccc(OC)cc3c2OC(C)C)nc1 [Example 36, Ethyl 6-[[[5-methoxy-3-(1-methylethoxy)benzo[b]thien-2-yl]carbonyl]amino]-3-pyridinecarboxylate] |  | 26 |  |
| COc1ccc2sc(C(=O)Nc3ccc(C(=O)O)cn3)c(OC(C)C)c2c1 [Example 37] |  | 8 |  |
| COc1ccc2sc(C(N)=O)c(OC(C)C)c2c1 [Example 1, 5-methoxy-3-(1-methylethoxy)benzo[b]thiophene-2-carboxamide] |  |  | IC50 (5-Lipoxygenase [2]): 36 µM; inhibition at 30 µM (5-Lipoxygenase [3]): 13% |
| COc1ccc2sc(C(=O)Nc3nc(CC(=O)O)cs3)c(OC(C)C)c2c1 [Example 39, 2-[[[5-Methoxy-3-(1-methylethoxy)benzo[b]thien-2-yl]carbonyl]amino]-4-thiazoleacetic acid] |  | 26 |  |
| CCOC(=O)Cc1csc(NC(=O)c2sc3ccc(OC)cc3c2OC(C)C)n1 [Example 38, Ethyl 2-[[[5-methoxy-3-(1-methylethoxy)benzo[b]thien-2-yl]carbonyl]amino]-4-thiazoleacetate] |  | 72 |  |
